Measured values as given in patent US6737383B1, “Herbicidal oxadiazolidines” (priority 1999, dated 2004).

Key:
giant foxtail = experiment: Test B pre/postemergence giant foxtail; type: in vivo, Setaria faberii
Method in brief: (§1)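 Test chemicals in a non-phytotoxic solvent mixture with surfactant were sprayed preemergence onto planted seeds and postemergence onto plants 2 to 18 cm tall (1- to 4-leaf stage). After twelve to sixteen days in a greenhouse, injury was visually rated against untreated controls from 0 (no effect) to 10 (complete control).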

purple nutsedge = experiment: Test B pre/postemergence purple nutsedge; type: in vivo, Cyperus rotundus
Method in brief: as §1

blackgrass = experiment: Test B pre/postemergence blackgrass; type: in vivo, Alopecurus myosuroides
Method in brief: as §1

bamyardgrass = experiment: Test B flood test barnyardgrass; type: in vivo, Echinochloa crus-galli; details: Pre-emergence
Method in brief: (§2)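 Each value is a visual injury score relative to controls, with 10 meaning complete control and 0 no effect. Evaluation took place twelve to sixteen days after the 2-leaf-stage plants were treated and kept in the greenhouse.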

sugar beet = experiment: Test B pre/postemergence sugar beet; type: in vivo, Beta vulgaris
Method in brief: as §1

smallflower flatsedge = experiment: Test B flood test smallflower flatsedge; type: in vivo, Cyperus difformis; details: Pre-emergence
Method in brief: as §2

soybean = experiment: Test B pre/postemergence soybean; type: in vivo, Glycine max
Method in brief: as §1

velvetleaf = experiment: Test B pre/postemergence velvetleaf; type: in vivo, Abutilon theophrasti
Method in brief: as §1

cocklebur = experiment: Test B pre/postemergence cocklebur; type: in vivo, Xanthium strumarium
Method in brief: as §1

corn = experiment: Test B pre/postemergence corn; type: in vivo, Zea mays
Method in brief: as §1

pigweed = experiment: Test B pre/postemergence pigweed; type: in vivo, Amaranthus retroflexus
Method in brief: as §1

morningglory = experiment: Test B pre/postemergence morningglory; type: in vivo, Ipomoea hederacea
Method in brief: as §1

rape = experiment: Test B pre/postemergence rape; type: in vivo, Brassica napus
Method in brief: as §1

duck salad = experiment: Test B flood test duck salad; type: in vivo, Heteranthera limosa; details: Pre-emergence
Method in brief: as §2

surinam grass = experiment: Test B pre/postemergence surinam grass; type: in vivo, Brachiaria decumbens
Method in brief: as §1

bedstraw = experiment: Test B pre/postemergence bedstraw; type: in vivo, Galium aparine
Method in brief: as §1

[1] = Preemergence, Rate 62 g/ha, scale of 0 to 10 where 0 is no effect and 10 is complete control
[2] = Preemergence, Rate 250 g/ha, scale of 0 to 10 where 0 is no effect and 10 is complete control
[3] = Preemergence, Rate 500 g/ha, scale of 0 to 10 where 0 is no effect and 10 is complete control
[4] = Rate 62 g/ha, Postemergence, scale 0 to 10 (0 no effect, 10 complete control)
[5] = Rate 125 g/ha, Postemergence, scale of 0 to 10 where 0 is no effect and 10 is complete control
[6] = Rate 250 g/ha, Postemergence, scale of 0 to 10 where 0 is no effect and 10 is complete control
[7] = Rate 500 g/ha, Postemergence, scale 0 to 10, 0 no effect, 10 complete control
[8] = Rate 1000 g/ha, scale 0 to 10 (0 no effect, 10 complete control)
[9] = Rate 125 g/ha, flood test species, scale 0 to 10 where 0 is no effect and 10 is complete control
[10] = Rate 250 g/ha, flood-test species, scale 0 to 10, 0 is no effect, 10 is complete control
[11] = Rate 500 g/ha, flood test species, scale 0 to 10 (0 no effect, 10 complete control)

COC(Cn1c(=O)on(C(=O)N(c2ccc(F)cc2)C(C)C)c1=O)OC [Compound 317]
Giant foxtail plant response rating (giant foxtail; [1]): 9 | Giant foxtail plant response rating (0 to 10 scale) (giant foxtail; Preemergence, Rate 125 g/ha): 10 | Giant foxtail plant response rating (giant foxtail; [2]): 10 | Giant foxtail plant response rating (giant foxtail; [3]): 10 | Giant foxtail plant response rating (giant foxtail; [4]): 5 | Giant foxtail plant response rating (giant foxtail; [5]): 5 | Plant response rating, Giant foxtail (giant foxtail; [6]): 8 | Nutsedge plant response rating (purple nutsedge; [1]): 0 | Nutsedge plant response rating (purple nutsedge; [2]): 0 | Nutsedge plant response rating (purple nutsedge; [3]): 0 | Nutsedge plant response rating (purple nutsedge; [4]): 0 | Nutsedge plant response rating (purple nutsedge; [5]): 0 | Plant response rating, Nutsedge (purple nutsedge; [6]): 0 | Blackgrass plant response rating (blackgrass; [1]): 3 | Blackgrass plant response rating (0 to 10 scale) (blackgrass; Preemergence, Rate 125 g/ha): 8 | Blackgrass plant response rating (blackgrass; [2]): 8 | Blackgrass plant response rating (blackgrass; [3]): 10 | Blackgrass plant response rating (blackgrass; [4]): 8 | Blackgrass plant response rating (blackgrass; [5]): 8 | Plant response rating, Blackgrass (blackgrass; [6]): 8 | Blackgrass plant response rating (blackgrass; [7]): 9 | Barnyardgrass plant response rating (bamyardgrass; [8]): 0 | Barnyardgrass plant response rating (bamyardgrass; [9]): 0 | Barnyardgrass plant response rating (bamyardgrass; [10]): 0 | Barnyardgrass plant response rating (bamyardgrass; [11]): 0 | Sugarbeets plant response rating (sugar beet; [1]): 1 | Sugarbeets plant response rating (0 to 10 scale) (sugar beet; Preemergence, Rate 125 g/ha): 4 | Sugarbeets plant response rating (sugar beet; [2]): 7 | Sugarbeets plant response rating (sugar beet; [3]): 8 | Sugarbeets plant response rating (sugar beet; [4]): 0 | Sugarbeets plant response rating (sugar beet; [5]): 0 | Plant response rating, Sugarbeets (sugar beet; [6]): 1 | S. Flatsedge plant response rating (smallflower flatsedge; [8]): 0 | S. Flatsedge plant response rating (smallflower flatsedge; [9]): 0 | S. Flatsedge plant response rating (smallflower flatsedge; [10]): 0 | S. Flatsedge plant response rating (smallflower flatsedge; [11]): 0 | Soybean plant response rating (soybean; [1]): 0 | Soybean plant response rating (0 to 10 scale) (soybean; Preemergence, Rate 125 g/ha): 0 | Soybean plant response rating (soybean; [2]): 0 | Soybean plant response rating (soybean; [3]): 4 | Soybean plant response rating (soybean; [4]): 3 | Soybean plant response rating (soybean; [5]): 4 | Plant response rating, Soybean (soybean; [6]): 6 | Velvetleaf plant response rating (velvetleaf; [1]): 1 | Velvetleaf plant response rating (0 to 10 scale) (velvetleaf; Preemergence, Rate 125 g/ha): 6 | Velvetleaf plant response rating (velvetleaf; [2]): 6 | Velvetleaf plant response rating (velvetleaf; [3]): 8 | Velvetleaf plant response rating (velvetleaf; [4]): 0 | Velvetleaf plant response rating (velvetleaf; [5]): 0 | Plant response rating, Velvetleaf (velvetleaf; [6]): 0 | Cocklebur plant response rating (0 to 10 scale) (cocklebur; Preemergence, Rate 125 g/ha): 0 | Cocklebur plant response rating (cocklebur; [3]): 0 | Cocklebur plant response rating (cocklebur; [4]): 0 | Cocklebur plant response rating (cocklebur; [5]): 0 | Plant response rating, Cocklebur (cocklebur; [6]): 0 | Cocklebur plant response rating (cocklebur; [7]): 1 | Corn plant response rating (corn; [1]): 0 | Corn plant response rating (0 to 10 scale) (corn; Preemergence, Rate 125 g/ha): 2 | Corn plant response rating (corn; [3]): 5 | Corn plant response rating (corn; [4]): 0 | Corn plant response rating (corn; [5]): 0 | Plant response rating, Corn (corn; [6]): 2 | Corn plant response rating (corn; [7]): 3 | Redroot pigweed plant response rating (pigweed; [1]): 2 | Redroot pigweed plant response rating (0 to 10 scale) (pigweed; Preemergence, Rate 125 g/ha): 7 | Redroot pigweed plant response rating (pigweed; [2]): 7 | Redroot pigweed plant response rating (pigweed; [3]): 10 | Redroot pigweed plant response rating (pigweed; [4]): 0 | Redroot pigweed plant response rating (pigweed; [5]): 0 | Plant response rating, Redroot pigweed (pigweed; [6]): 3 | Morningglory plant response rating (morningglory; [1]): 0 | Morningglory plant response rating (0 to 10 scale) (morningglory; Preemergence, Rate 125 g/ha): 0 | Morningglory plant response rating (morningglory; [2]): 0 | Morningglory plant response rating (morningglory; [3]): 0 | Morningglory plant response rating (morningglory; [4]): 1 | Morningglory plant response rating (morningglory; [5]): 3 | Plant response rating, Morningglory (morningglory; [6]): 3 | Rape plant response rating (rape; [1]): 0 | Rape plant response rating (0 to 10 scale) (rape; Preemergence, Rate 125 g/ha): 2 | Rape plant response rating (rape; [2]): 8 | Rape plant response rating (rape; [3]): 10 | Rape plant response rating (rape; [4]): 0 | Rape plant response rating (rape; [5]): 0 | Plant response rating, Rape (rape; [6]): 1 | Ducksalad plant response rating (duck salad; [8]): 0 | Ducksalad plant response rating (duck salad; [9]): 0 | Ducksalad plant response rating (duck salad; [10]): 0 | Ducksalad plant response rating (duck salad; [11]): 0 | B. signalgrass plant response rating (surinam grass; [1]): 5 | B. signalgrass plant response rating (0 to 10 scale, 0 is no effect, 10 is complete control) (surinam grass; Preemergence, Rate 125 g/ha): 6 | B. signalgrass plant response rating (surinam grass; [2]): 7 | B. signalgrass plant response rating (surinam grass; [3]): 8 | B. signalgrass plant response rating (surinam grass; [4]): 0 | B. signalgrass plant response rating (surinam grass; [5]): 1 | Plant response rating, B. signalgrass (surinam grass; [6]): 7 | B. signalgrass plant response rating (surinam grass; [7]): 8 | Bedstraw plant response rating (bedstraw; [1]): 0 | Bedstraw plant response rating (bedstraw; [4]): 2 | Bedstraw plant response rating (bedstraw; [5]): 6 | Plant response rating, Bedstraw (bedstraw; [6]): 8
